Test results as given in patent publication US20150080551A1, “LYSINE OLIGOMER DERIVATIVE AND CARTILAGE TISSUE MARKER MADE THEREOF” (NATIONAL UNIVERSITY CORPORATION OKAYAMA UNIVERSITY, priority 2012, published 2015).

What was measured:
[1] = system: cartilage tissue (articular cartilage, distal end of a femur); experiment: Immersion of a distal end of a femur of a normal mouse in a cartilage tissue visualization reagent solution, ex vivo fluorescence microscopy; conditions: room temperature, 1 hour, GFP filter; for staining of cartilage (fluorescence signal, FIG. 2): 0.1 mM solution in saline; for staining of cartilage (fluorescence signal, FIG. 1): 0.1 mM solution in saline containing 25% ethanol
Method: Two normal C57B6/J strain mouse (8 week old, female) were prepared. The animals were euthanized by ether deep anesthesia and a distal end of a femur was excised. The sample was immersed in 100 μL of a 0.1 mM lysine oligomer derivative solution at room temperature for 1 hour. After 1 hour, the sample was washed twice with buffered saline. This was embedded in 4% CMC compound, frozen in hexane/liquid nitrogen, and cut into thin slices with a thickness of 7 μm using a tungsten carbide blade TC-65 (Leica) for a hard tissue slice and Cryofilm (Leica) in a cryostat without decalcification. The slice was thawed at room temperature for 10 sec, immersed in 100% ethanol for about 30 sec, stored in 4% paraformaldehyde (PFA) for a while, washed with tap water, and then subjected to fluorescence microscopy. An optical filer was a GFP filter. A lysine peptide was labeled with a fluorescence agent NBD, so that its signal was detected.
Here, a solvent of the solution of a lysine oligomer derivative was saline containing 25% ethanol. FIG. 1 is an enlarged image of an articular cartilage area in a sagittal plane of a knee joint in a distal end of a femur. The broken line indicates a tide-mark which is a boundary plane between a cartilage and a calcified cartilage layer.
Here, a solvent of the solution of a lysine oligomer derivative was saline. FIG. 2 is an enlarged image of an articular cartilage area in a sagittal plane of a knee joint in a distal end of a femur. […] For any of compounds 26 to 29, staining of a cartilage tissue was observed. However, staining of compound 26 containing only one lysine unit was slight. […] The white (green in a color photo) regions in the cartilage layer correspond to a part stained by a compound. Some of the circular regions (blue in a color photo) correspond to nuclear stain parts by Hoechst, which were also observed in the calcified layer.

Row | Structure (SMILES) | staining of cartilage (fluorescence signal, FIG. 2) [1] | melting point | staining of cartilage (fluorescence signal, FIG. 1) [1]
1 | NCCCC[C@H](N)C(=O)NCCCC[C@H](N)C(=O)NCCCC[C@H](N)C(=O)NCCCC[C@H](N)C(=O)NCCCC[C@H](N)C(=O)NCCNc1ccc([N+](=O)[O-])c2nonc12 [Compound 29] | further strongly stained |  | 
2 | NCCCC[C@H](N)C(=O)NCCNc1ccc([N+](=O)[O-])c2nonc12 [Compound 26] | slight | 151.4 to 153.9 °C | 
3 | N=C(N)NCCNc1c(I)cc(C(=O)NCCCC[C@H](NC(=O)c2cc(I)c(NCCNC(=N)N)c(I)c2)C(=O)NCCCC[C@H](NC(=O)c2cc(I)c(NCCNC(=N)N)c(I)c2)C(=O)NCCCC[C@H](NC(=O)c2cc(I)c(NCCNC(=N)N)c(I)c2)C(=O)NCCNc2ccc([N+](=O)[O-])c3nonc23)cc1I [Compound 42] |  | 189.4 to 191.5 °C | Staining was observed in the cartilage tissue
4 | NCCCC[C@H](N)C(=O)NCCCC[C@H](N)C(=O)NCCCC[C@H](N)C(=O)NCCNc1ccc([N+](=O)[O-])c2nonc12 [Compound 27] | adequately stained | 183.3 to 184.7 °C | Staining was observed in the cartilage tissue
5 | NCCCC[C@H](N)C(=O)NCCCC[C@H](N)C(=O)NCCCC[C@H](N)C(=O)NCCCC[C@H](N)C(=O)NCCNc1ccc([N+](=O)[O-])c2nonc12 [Compound 28] | further strongly stained |  | 
6 | NCCNc1c(I)cc(C(=O)NCCCC[C@H](NC(=O)c2cc(I)c(NCCN)c(I)c2)C(=O)NCCCC[C@H](NC(=O)c2cc(I)c(NCCN)c(I)c2)C(=O)NCCCC[C@H](NC(=O)c2cc(I)c(NCCN)c(I)c2)C(=O)NCCNc2ccc([N+](=O)[O-])c3nonc23)cc1I [Compound 43] |  | 192.9 to 195.7 °C | staining was confined to the surface tissue
